Test results reported in ChEMBL document CHEMBL1134829, “7-Alkyl- and 7-cycloalkyl-5-aryl-pyrrolo[2,3-d]pyrimidines--potent inhibitors of the tyrosine kinase c-Src” (Bioorg Med Chem Lett, 2001).

How the values were obtained:
[1] = biological target: T1, Proto-oncogene tyrosine-protein kinase Src (Gallus gallus, UniProt P00523); assay: Inhibition of p60 c-Src tyrosine kinase at 830 ng/mL
[2] = biological target: Epidermal growth factor receptor (Homo sapiens, UniProt P00533); assay: Inhibition of Epidermal growth factor receptor (EGF-R) tyrosine kinase activity
Chain of Epidermal growth factor receptor (P00533 whole entry): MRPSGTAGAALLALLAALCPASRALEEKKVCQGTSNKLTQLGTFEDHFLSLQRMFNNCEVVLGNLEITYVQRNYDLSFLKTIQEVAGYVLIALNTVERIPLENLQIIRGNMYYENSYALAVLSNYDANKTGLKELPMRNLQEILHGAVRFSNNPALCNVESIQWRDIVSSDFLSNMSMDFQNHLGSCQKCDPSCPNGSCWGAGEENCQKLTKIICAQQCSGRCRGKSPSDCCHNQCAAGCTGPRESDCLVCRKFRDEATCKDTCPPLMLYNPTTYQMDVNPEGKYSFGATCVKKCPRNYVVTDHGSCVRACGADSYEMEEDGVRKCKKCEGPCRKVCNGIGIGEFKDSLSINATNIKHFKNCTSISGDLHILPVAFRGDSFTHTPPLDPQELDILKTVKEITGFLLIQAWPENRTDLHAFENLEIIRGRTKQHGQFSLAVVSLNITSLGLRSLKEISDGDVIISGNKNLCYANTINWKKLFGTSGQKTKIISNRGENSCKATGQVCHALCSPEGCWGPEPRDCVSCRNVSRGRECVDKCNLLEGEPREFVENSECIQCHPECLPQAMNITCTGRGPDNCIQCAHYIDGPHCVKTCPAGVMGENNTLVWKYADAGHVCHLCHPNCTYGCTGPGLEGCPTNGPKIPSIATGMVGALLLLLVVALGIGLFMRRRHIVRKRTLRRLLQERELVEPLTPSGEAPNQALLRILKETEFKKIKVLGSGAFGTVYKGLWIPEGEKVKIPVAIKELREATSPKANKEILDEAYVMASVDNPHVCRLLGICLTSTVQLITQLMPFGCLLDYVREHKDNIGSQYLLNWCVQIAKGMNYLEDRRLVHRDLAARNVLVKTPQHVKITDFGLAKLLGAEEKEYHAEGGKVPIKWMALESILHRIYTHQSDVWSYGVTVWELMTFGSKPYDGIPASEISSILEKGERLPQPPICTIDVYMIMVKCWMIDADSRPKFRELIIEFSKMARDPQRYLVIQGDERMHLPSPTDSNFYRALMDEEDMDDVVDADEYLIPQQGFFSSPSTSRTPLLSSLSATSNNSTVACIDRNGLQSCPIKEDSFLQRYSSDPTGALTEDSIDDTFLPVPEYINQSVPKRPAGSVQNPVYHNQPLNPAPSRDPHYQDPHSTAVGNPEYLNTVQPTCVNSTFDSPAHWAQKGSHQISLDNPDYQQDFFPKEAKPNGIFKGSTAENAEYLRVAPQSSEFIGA

[3] = biological target: T1, Proto-oncogene tyrosine-protein kinase Src; assay: Inhibition of p60 c-Src tyrosine kinase activity
[4] = biological target: T1, Proto-oncogene tyrosine-protein kinase Src; assay: Inhibition of p60 c-Src tyrosine kinase mediated phosphorylation of Fak in IC8.1 fibroblasts; format: functional
[5] = biological target: Tyrosine-protein kinase ABL (Homo sapiens, UniProt P00519+P42684)
Description: Inhibition of v-Abl tyrosine kinase activity

Row | Structure (SMILES) | IC50 [1] [nM] | IC50 [2] [nM] | IC50 [3] [nM] | IC50 [4] [nM] | IC50 [5] [nM]
1 | Nc1ncnc2c1c(-c1ccccc1)cn2[C@H](CO)c1ccccc1 | 4900 |  |  |  | 
2 | Nc1ncnc2c1c(-c1ccccc1)cn2C1CCCC1 |  | 500 | 140 | 1800 | 140
3 | Nc1ncnc2c1c(-c1ccccc1)cn2C1CCC1 |  | 730 | 110 | 1000 | 90
4 | Nc1ncnc2c1c(-c1ccc(O)cc1)cn2C1CCC1 |  | 600 | 10 | 1500 | 85
5 | COc1ccc(-c2cn(C3CCC3)c3ncnc(N)c23)cc1 |  |  | 200 | 3000 | 
6 | COc1cccc(-c2cn(C3CC(C(=O)NCCO)C3)c3ncnc(N)c23)c1 (stereo unspecified) |  | 330 | 20 | 4000 | 230
7 | COc1ccc(-c2cn(C3CCCC3)c3ncnc(N)c23)cc1 |  | 570 | 80 | 1200 | 260
8 | Nc1ncnc2c1c(-c1ccc(O)cc1)cn2C1CCCC1 |  | 250 | 20 | 300 | 110
9 | Nc1ncnc2c1c(-c1ccccc1)cn2C(CO)CCc1ccccc1 (stereo unspecified) |  |  | 4000 |  | 
10 | COc1ccc(CC(CO)n2cc(-c3ccccc3)c3c(N)ncnc32)cc1 (stereo unspecified) |  | 14400 | > 1000 | > 5000 | > 10000
11 | Nc1ncnc2c1c(-c1ccccc1)cn2C1CCC(O)C1 (stereo unspecified) |  | 790 | 50 | 200 | 40
12 | Nc1ncnc2c1c(-c1ccccc1)cn2[C@@H](CO)c1ccccc1 |  |  | 480 | > 5000 | 
13 | COc1ccc(CC(CO)n2cc(-c3cccc(OC)c3)c3c(N)ncnc32)cc1 (stereo unspecified) |  | 9700 | 1000 |  | 
14 | COc1cccc(-c2cn(C3CCC3)c3ncnc(N)c23)c1 |  | 450 | 40 | 600 | 50
15 | COc1cccc(-c2cn(C3CC(CNCCO)C3)c3ncnc(N)c23)c1 (stereo unspecified) |  | 490 | 20 | 300 | 420
16 | COc1ccc(CC(CO)n2cc(-c3cccc(O)c3)c3c(N)ncnc32)cc1 (stereo unspecified) |  | 3400 | 42 | 400 | 340
17 | Nc1ncnc2c1c(-c1cccc(O)c1)cn2C1CCC1 |  | 300 | 4 | 100 | 5
18 | COc1cccc(-c2cn(C3CC(CO)C3)c3ncnc(N)c23)c1 (stereo unspecified) |  |  | 30 | 2000 | 40
19 | Nc1ncnc2c1c(-c1ccccc1)cn2C(CO)Cc1ccccc1 (stereo unspecified) |  | 440 | 600 |  | 10500
20 | COc1cccc(-c2cn(C3CCCC3)c3ncnc(N)c23)c1 |  | 460 | 2 | 170 | 170
21 | Nc1ncnc2c1c(-c1cccc(O)c1)cn2C1CCCC1 |  | 80 | 1 | 200 | 
22 | Nc1ncnc2c1c(-c1ccccc1)cn2C1CC(O)C1 (stereo unspecified) |  | 2820 | 20 | 4000 | 390
23 | Nc1ncnc2c1c(-c1ccccc1)cn2C(CO)Cc1ccc(O)cc1 (stereo unspecified) |  | 13200 | 1900 |  | 2200
